Test results reported in publication PMC2802001, “Binding of Natural and Synthetic Polyphenols to Human Dihydrofolate Reductase” (International Journal of Molecular Sciences, 2009).
Values joined by “and” are separate entries in the source; they are usually repeats but may differ in a detail not shown here. Equal entries are not always repeated. “Also recorded” adds a separate entry of the source.

Tests used:
[1] = target: T1, human DHFR (Homo sapiens, UniProt P00374); assay: Fluorescence titration (quenching of tryptophan fluorescence) for binding to free DHFR; conditions: for Kd / Binding to human DHFR (effect on enzyme fluorescence), in words: fluorescence quenching; for Kd: excitation 290 nm, enzyme 0.1 μM, pH 7.4, read-out: KD, dissociation constant for binding to human DHFR
T1 construct: purchased Sigma
T1 sequence (P00374 1-187): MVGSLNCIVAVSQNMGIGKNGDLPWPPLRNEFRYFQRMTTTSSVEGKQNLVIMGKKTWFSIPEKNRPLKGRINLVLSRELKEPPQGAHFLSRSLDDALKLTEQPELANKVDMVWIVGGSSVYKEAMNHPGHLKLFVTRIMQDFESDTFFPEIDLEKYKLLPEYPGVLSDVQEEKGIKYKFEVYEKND
Method: Highly purified tea polyphenols EGCG (>95%), ECG (>98%), EGC (>98%), and EC (>98%) were purchased from Sigma Chemical Co. (Madrid, Spain). Qgal, Qglc, Qrha and Qxyl were form Fluka (Madrid, Spain). […] To synthesize TMECG-QM, a TMECG solution (0.5 mM) in phosphate buffered saline (PBS), pH 7.0, was alkalinize at pH 8.5 with NaOH. The reaction was followed spectrophotometrically at 470 nm and, after completion, the sample was neutralized by adding HCl. Recombinant human DHFR was purchased from Sigma and its concentration was determined by MTX titration of enzyme fluorescence.
The fluorescence of DHFR is reduced on binding of substrates and inhibitors, and this property may be used as a convenient method for determining both the enzyme concentration and the dissociation constants of enzyme-ligands complexes. Dissociation constants for the binding of polyphenols to free DHFR were determined by fluorescence titration in an automatic-scanning Perkin-Elmer LS50B spectrofluorimeter with 1.0 cm light path cells and equipped with a 150W xenon (XBO) light source. The formation of the binary complex between the enzyme and the ligand was followed by measuring the quenching of tryptophan fluorescence of the enzyme upon addition of microliter volumes of a concentrated stock solution of ligand. Fluorescence emission spectra were recorded when DHFR fluorescence was excited at 290 nm. All measurements were corrected for dilution and the data from the titration curves were fitted as described previously. Titrations were performed in a buffer containing 2-(N-morpholino)ethanesulfonic acid (Mes, 0.025 M), sodium acetate (0.025 M), tris(hydroxymethyl)aminomethane (Tris 0.05 M), and NaCl (0.1 M), at pH 7.4.

[2] = tested on: bovine liver DHFR; design: method as in PMID 15781612; conditions: cited from earlier work
[3] = target: T1, human DHFR; assay: Human DHFR activity assayed in the presence of tea catechins; assay type: biochemical
Method: In order to detect which components of these extracts were responsible for such inhibition, human DHFR activity was assayed in the presence of EC, EGC, ECG or EGCG. […] The effective binding of ECG to free human DHFR was determined by following the decrease in enzyme fluorescence that occurs after formation of the enzyme-inhibitor complex (Figure 3).

[4] = tested on: chicken liver DHFR; design: method as in PMID 15781612; conditions: cited from earlier work
[5] = design: method as in PMID 18324763; conditions: cited from earlier work
[6] = Stability of TMECG in solution at neutral and alkaline pH; assay type: physicochemical
Method: Despite the excellent anticancer properties of tea catechins, they have at least one great limitation: their poor bioavailability. The reduced availability of catechins is related with their low stability in neutral or slightly alkaline solutions and their poor ability to cross cellular membranes. […] This synthetic catechin also bound human DHFR with an effective dissociation constant of 2.1 ± 0.2 μM (Figure 5; Table 1). […] By analogy with the oxidation of quercetin in alkaline solution [19], the proposed structure for this compound is depicted in Figure 6 and was identified as a quinone methide (TMECG-QM) with an open structure.
Highly purified tea polyphenols EGCG (>95%), ECG (>98%), EGC (>98%), and EC (>98%) were purchased from Sigma Chemical Co. (Madrid, Spain). Qgal, Qglc, Qrha and Qxyl were form Fluka (Madrid, Spain). TMECG was successfully synthesized (70% recovery) from catechin with the subsequent inversion of the stereochemistry at C-3 and by reaction of with 3,4,5-trimethoxybenzoylchloride (Sigma). To synthesize TMECG-QM, a TMECG solution (0.5 mM) in phosphate buffered saline (PBS), pH 7.0, was alkalinize at pH 8.5 with NaOH. The reaction was followed spectrophotometrically at 470 nm and, after completion, the sample was neutralized by adding HCl. Recombinant human DHFR was purchased from Sigma and its concentration was determined by MTX titration of enzyme fluorescence.

[7] = tested on: different cancer cell lines; design: method as in PMID 18324763; conditions: cited from earlier work

SMILES: CC1OC(Oc2c(-c3ccc(O)c(O)c3)oc3cc(O)cc(O)c3c2=O)C(O)C(O)C1O (stereo not drawn) [Qrha, quercetin-3-rhamnoside]
- Kd [1]: 17200 ± 2400 nM

SMILES: O=C(O[C@@H]1Cc2c(O)cc(O)cc2O[C@@H]1c1cc(O)c(O)c(O)c1)c1cc(O)c(O)c(O)c1 [EGCG, (-)-epigallocatechin gallate]
- Type of inhibition of DHF reduction [2]: slow-binding inhibitor
- Inhibition of human DHFR activity, in words [3]: potent inhibitors
- Kd [1]: 900 nM and 920 nM
- Type of inhibition of DHF reduction [4]: classical, reversible, competitive inhibitor

SMILES: O=c1c(O[C@@H]2O[C@H](CO)[C@@H](O)[C@H](O)[C@H]2O)c(-c2ccc(O)c(O)c2)oc2cc(O)cc(O)c12 [Qglc, quercetin-3-β-D-glucoside]
- Kd [1]: 102000 ± 9000 nM

SMILES: O=C(OC1Cc2c(O)cc(O)cc2OC1c1ccc(O)c(O)c1)c1cc(O)c(O)c(O)c1 (single isomer, unassigned; (-)) [ECG, (-)-epicatechin gallate]
- Inhibition of human DHFR activity, in words [3]: potent inhibitors
- Kd [1]: 1800 nM and 1780 nM

SMILES: O=c1c(O[C@@H]2O[C@H](CO)[C@H](O)[C@H](O)[C@H]2O)c(-c2ccc(O)c(O)c2)oc2cc(O)cc(O)c12 [Qgal, quercetin-3-D-galactoside]
- Kd [1]: 22800 ± 3200 nM

SMILES: O=c1c(OC2OCC(O)C(O)C2O)c(-c2ccc(O)c(O)c2)oc2cc(O)cc(O)c12 [Qxyl, quercetin-3-D-xyloside]
- Kd [1]: 600 nM and 590 nM

SMILES: Oc1cc(O)c2c(c1)O[C@H](c1ccc(O)c(O)c1)[C@H](O)C2 [EC, (-)-epicatechin]
- Inhibition of human DHFR activity, in words [3]: did not inhibit
- Binding to human DHFR (effect on enzyme fluorescence), in words [1]: did not modify the emission spectra; also recorded: did not bind

SMILES: Oc1cc(O)c2c(c1)OC(c1cc(O)c(O)c(O)c1)C(O)C2 (single isomer, unassigned; (-)) [EGC, (-)-epigallocatechin]
- Inhibition of human DHFR activity, in words [3]: did not inhibit
- Binding to human DHFR (effect on enzyme fluorescence), in words [1]: did not bind

SMILES: COc1cc(C(=O)O[C@@H]2Cc3c(O)cc(O)cc3OC2c2ccc(O)c(O)c2)cc(OC)c1OC (stereo partly drawn) [TMECG, 3-O-(3,4,5-trimethoxybenzoyl)-(-)-epicatechin]
- Bioavailability in vitro [5]: high bioavailability in vitro
- Stability at alkaline pH ([6]; alkaline pH, band at 470 nm): rapidly evolves to an orange compound
- Stability at neutral pH ([6]; neutral pH): highly stable
- Kd [1]: 2100 ± 200 nM
- Antiproliferative activity [7]: significant antiproliferative activity

SMILES: COc1cc(C(=O)O[C@H](Cc2c(O)cc(O)cc2O)/C(O)=C2/C=CC(=O)C(O)=C2)cc(OC)c1OC [TMECG-QM]
- Affinity for human DHFR relative to EGCG, ECG or TMECG ([1]; compared with EGCG, ECG or TMECG): more than two-order of magnitude more strongly
- Affinity for human DHFR relative to MTX ([1]; compared with MTX): forty-times less
